According to patent US11532406B2, “High specific activity preparation of F-18 tetrafluoroborate” (Mayo Foundation for Medical Education and Research, priority 2016, dated 2022):
Values joined by “and” are separate entries in the source; they are usually repeats but may differ in a detail not shown here. Identical values can stand only once. Marks after values point to notes of the source that are not given here.

Assays:
[1] = Radiation dosimetry estimation (organ residence times, OLINDA); type: in vivo, human; details: for Residence Time, Bladder: bladder emptying model, 3.5 h voiding period; for Estimated absorbed radiation dose, Urinary Bladder Wall: bladder voiding interval of 3.5 h
Method: Radiation dosimetry estimates were calculated from organ residence times using OLINDA software (Ver. 1.1), assuming a bladder voiding interval of 3.5 h. Gender-specific organ masses for the conversion of SUV to disintegrations per organ per unit radioactivity administered (Bq-hr/Bq) were taken from Schlein et al. (15).
Bladder residence time was estimated by the bladder emptying model within the OLINDA software, assuming a 3.5 h bladder voiding period. The dose-critical organ is thyroid, with dose estimates of 0.26 and 0.36 mSv/MBq in males and females, respectively. […] Effective dose was higher in females (0.065 mSv/MBq) relative to males (0.036 mSv/MBq).

[2] = Measurements in venous blood and urine samples, HPLC metabolite analysis; type: in vivo, human; details: for Urine (% Dose), Accumulative: end of study (~250 min)
Method: Urine was collected after each PET/CT scan (approximately 55, 160, 250 min), and venous blood samples were collected at 40, 145 and 235 min, post-injection, as shown in FIG. 13. Blood samples (3-4 mL) were collected in heparinized tubes and placed on ice. The blood samples were centrifuged at 3000 g for 5 min to obtain plasma. Urine was measured for urine volume and radioactivity concentration as measured in a calibrated gamma counter. Analysis for metabolites in plasma and urine was performed by ion-chromatography HPLC, allowing estimation of the fraction of radioactivity as nonmetabolized ^18F-TFB.

[3] = ~400 MBq ^18F-TFB synthesized by the conventional method, human subject; Jauregui-Osoro et al. (14); cited from earlier work
[4] = Stability of ^18F-TFB (radio-TLC and anion chromatography HPLC); type: physicochemical
Method: The product ^18F-TFB was analyzed for radiochemical purity by both radio-TLC (MeOH, Rf=0.8-0.85) and anion chromatography HPLC with radioactivity detector (Dionex IC-2100, AS19 analytical column: 4.7×150 mm; eluent: 35 mM KOH; sample volume: 25.L; flow rate: 1 mL/min; retention times: 7.6 min for ^18F-TFB, […]). Chemical purity and specific activity were analyzed by anion chromatography HPLC (retention times: 3.5 min for fluoride, 4.3 min for chloride, and 7.6 min for BF4—). Residual organic solvents were analyzed by GC (helium carrier gas flow at 10 cc/min through a MXTWAX column (Restek, Bellefonte, Pa., 0.53 mm ID, 30 m length)).
After the synthesis, a sample was diluted with water for the analysis. With the eluent of methanol on silica gel plate, purities of >98% were obtained on the radio-TLC scanner.
^18F-TFB was prepared and formulated in sterile 0.9% NaCl under cGMP conditions as previously described (12). Decay-corrected radiochemical yields of 32±2% and radiochemical purities (RCPs) >98% were obtained. Specific radioactivity of 2.2±0.9 GBq/μmol was achieved from starting ^18F-fluoride radioactivity of 20-31 GBq. In vitro RCP remained >96% up to 8 h at room temperature.

## F[B-](F)(F)[18F] [^18F-TFB, ^18F-tetrafluoroborate]
[1]; females
  Effective Dose: 0.065 mSv/MBq and 0.064 mSv/MBq
  Estimated absorbed radiation dose, Adrenals: 0.012 mSv/MBq
  Estimated absorbed radiation dose, Brain: 0.005 mSv/MBq
  Estimated absorbed radiation dose, Breasts: 0.028 mSv/MBq
  Estimated absorbed radiation dose, Gallbladder Wall: 0.022 mSv/MBq
  Estimated absorbed radiation dose, Heart Wall: 0.030 mSv/MBq
  Estimated absorbed radiation dose, Kidneys: 0.052 mSv/MBq
  Estimated absorbed radiation dose, Liver: 0.033 mSv/MBq
  Estimated absorbed radiation dose, Lower Large Intestine Wall: 0.015 mSv/MBq
  Estimated absorbed radiation dose, Lungs: 0.014 mSv/MBq
  Estimated absorbed radiation dose, Muscle: 0.011 mSv/MBq
  Estimated absorbed radiation dose, Osteogenic Cells: 0.009 mSv/MBq
  Estimated absorbed radiation dose, Ovaries: 0.020 mSv/MBq
  Estimated absorbed radiation dose, Pancreas: 0.043 mSv/MBq
  Estimated absorbed radiation dose, Red Marrow: 0.008 mSv/MBq
  Estimated absorbed radiation dose, Skin: 0.004 mSv/MBq
  Estimated absorbed radiation dose, Small Intestine Wall: 0.066 mSv/MBq
  Estimated absorbed radiation dose, Spleen: 0.047 mSv/MBq
  Estimated absorbed radiation dose, Stomach Wall: 0.184 mSv/MBq
  Estimated absorbed radiation dose, Thymus: 0.005 mSv/MBq
  Estimated absorbed radiation dose, Thyroid: 0.36 mSv/MBq
  Estimated absorbed radiation dose, Total Body: 0.011 mSv/MBq
  Estimated absorbed radiation dose, Upper Large Intestine Wall: 0.109 mSv/MBq
  Estimated absorbed radiation dose, Uterus: 0.022 mSv/MBq
  Residence Time, Bone: 3.1 ± 0.3 min
  Residence Time, Brain: 1.3 ± 0.2 min
  Residence Time, Breast: 2.8 ± 0.9 min
  Residence Time, Gallbladder: 0.09 ± 0.04 min
  Residence Time, Intestines: 13 ± 7 min
  Residence Time, Kidney: 3.9 ± 0.8 min
  Residence Time, Liver: 10 ± 2 min
  Residence Time, Lung: 2.4 ± 0.2 min
  Residence Time, Muscle: 26 ± 8 min
  Residence Time, Myocardium: 1.8 ± 0.3 min
  Residence Time, Pancreas: 0.58 ± 0.08 min
  Residence Time, Parotid: 3.3 ± 1.2 min
  Residence Time, Spleen: 1.6 ± 0.2 min
  Residence Time, Stomach: 24 ± 12 min
  Residence Time, Thyroid: 2.3 ± 0.9 min
  Residence Time, Bladder: 19 ± 4 min
  Estimated absorbed radiation dose, Urinary Bladder Wall: 0.22 mSv/MBq
[1]; males
  Effective Dose: 0.036 mSv/MBq
  Estimated absorbed radiation dose, Adrenals: 0.008 mSv/MBq
  Estimated absorbed radiation dose, Brain: 0.004 mSv/MBq
  Estimated absorbed radiation dose, Breasts: 0.002 mSv/MBq
  Estimated absorbed radiation dose, Gallbladder Wall: 0.012 mSv/MBq
  Estimated absorbed radiation dose, Heart Wall: 0.024 mSv/MBq
  Estimated absorbed radiation dose, Kidneys: 0.049 mSv/MBq
  Estimated absorbed radiation dose, Liver: 0.021 mSv/MBq
  Estimated absorbed radiation dose, Lower Large Intestine Wall: 0.009 mSv/MBq
  Estimated absorbed radiation dose, Lungs: 0.009 mSv/MBq
  Estimated absorbed radiation dose, Muscle: 0.008 mSv/MBq
  Estimated absorbed radiation dose, Osteogenic Cells: 0.008 mSv/MBq
  Estimated absorbed radiation dose, Pancreas: 0.034 mSv/MBq
  Estimated absorbed radiation dose, Red Marrow: 0.005 mSv/MBq
  Estimated absorbed radiation dose, Skin: 0.003 mSv/MBq
  Estimated absorbed radiation dose, Small Intestine Wall: 0.027 mSv/MBq
  Estimated absorbed radiation dose, Spleen: 0.033 mSv/MBq
  Estimated absorbed radiation dose, Stomach Wall: 0.076 mSv/MBq
  Estimated absorbed radiation dose, Testes: 0.005 mSv/MBq
  Estimated absorbed radiation dose, Thymus: 0.004 mSv/MBq
  Estimated absorbed radiation dose, Thyroid: 0.26 mSv/MBq
  Estimated absorbed radiation dose, Total Body: 0.008 mSv/MBq
  Estimated absorbed radiation dose, Upper Large Intestine Wall: 0.045 mSv/MBq
  Residence Time, Bone: 4.6 ± 1.3 min
  Residence Time, Brain: 1.2 ± 0.4 min
  Residence Time, Gallbladder: 0.06 ± 0.03 min
  Residence Time, Intestines: 5.7 ± 1.9 min
  Residence Time, Kidney: 4.2 ± 1.2 min
  Residence Time, Liver: 8.3 ± 3.9 min
  Residence Time, Lung: 2.1 ± 0.7 min
  Residence Time, Muscle: 36 ± 14 min
  Residence Time, Myocardium: 2.1 ± 0.6 min
  Residence Time, Pancreas: 0.7 ± 0.3 min
  Residence Time, Parotid: 1.7 ± 1.1 min
  Residence Time, Spleen: 1.5 ± 0.4 min
  Residence Time, Stomach: 11 ± 5 min
  Residence Time, Thyroid: 2.0 ± 0.7 min
  Residence Time, Bladder: 17 ± 2 min
  Estimated absorbed radiation dose, Urinary Bladder Wall: 0.14 mSv/MBq
[2]; females, 40 min
  % Intact ^18F-TFB, Plasma: 97 ± 3^c %
  Plasma (SUV): 3.8 ± 1.0 SUV
  Whole blood (SUV): 3.1 ± 0.9 SUV
[2]; females, 40 min column (urine collected ~10 min later)
  Urine (% Dose): 16 ± 3 % Dose
[2]; females, 40 min column (urine ~10 min later)
  % Intact ^18F-TFB, Urine: 98 ± 1%
[2]; females, 145 min
  Plasma (SUV): 2.1 ± 0.5 SUV
  Whole blood (SUV): 1.7 ± 0.4 SUV
[2]; females, 145 min column (urine collected ~10 min later)
  Urine (% Dose): 18 ± 3^ % Dose
[2]; females, 145 min column (urine ~10 min later)
  % Intact ^18F-TFB, Urine: 98 ± 1%
[2]; females, 235 min
  Plasma (SUV): 1.7 ± 0.5 SUV
  Whole blood (SUV): 1.4 ± 0.4 SUV
[2]; females, 235 min column (urine collected ~10 min later)
  Urine (% Dose): 12 ± 2 % Dose
[2]; females, 235 min column (urine ~10 min later)
  % Intact ^18F-TFB, Urine: 97 ± 2%
[2]; females
  Urine (% Dose), Accumulative: 47±7 % Dose
[2]; males, 40 min
  % Intact ^18F-TFB, Plasma: 97 ± 2%
  Plasma (SUV): 3.8 ± 0.2 SUV
  Whole blood (SUV): 3.0 ± 0.2 SUV
[2]; males, 40 min column (urine collected ~10 min later)
  Urine (% Dose): 15 ± 2^b % Dose
[2]; males, 40 min column (urine ~10 min later)
  % Intact ^18F-TFB, Urine: 96 ± 2%
[2]; males, 145 min
  Plasma (SUV): 2.8 ± 0.3 SUV
  Whole blood (SUV): 2.1 ± 0.2 SUV
[2]; males, 145 min column (urine collected ~10 min later)
  Urine (% Dose): 13 ± 3 % Dose
[2]; males, 145 min column (urine ~10 min later)
  % Intact ^18F-TFB, Urine: 97 ± 2%
[2]; males, 235 min
  Plasma (SUV): 2.0 ± 0.1 SUV
  Whole blood (SUV): 1.7 ± 0.2 SUV
[2]; males, 235 min column (urine collected ~10 min later)
  Urine (% Dose): 10 ± 2^b % Dose
[2]; males, 235 min column (urine ~10 min later)
  % Intact ^18F-TFB, Urine: 98 ± 1%
[2]; males
  Urine (% Dose), Accumulative: 40±4 % Dose and 40 ± 4^b % Dose
[2]; over the length of the study (4 h)
  ^18F-labeled metabolites in blood and urine (HPLC): insignificant
[2]; plasma samples at 40 min p.i.
  radioactivity as metabolically intact ^18F-TFB in plasma: > 97%
[3]
  estimated plasma concentration of TFB: ~0.1 µM
[4]; after 20 h
  HPLC analysis of the product sample, ^18F-TFB peak: chemically stable
[4]; after 20 h, sample diluted with water, silica gel, methanol
  radiochemical purity by radio-TLC after 20 h: > 96%
[4]; up to 8 h at room temperature, in sterile 0.9% NaCl
  In vitro RCP: > 96%
